Inconclusive results and toxic doses are left out. How the source made its calls: active means survival T/C of 150% or more; inactive means T/C below 125% in these data.
Test system: BDF1 mice, P388 leukemia ip, median survival T/C
Experiment: NCI In Vivo Anticancer Drug Screen. Data for tumor model P388 Leukemia (intraperitoneal) in B6D2F1 (BDF1) mice
Conditions: endpoint: median survival time, higher = longer survival
Method in brief: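 T/C = treated-group survival ÷ vehicle-control survival; tumour transplanted into mice before dosing.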

[1] = dose: 12.5 mg/kg/injection, schedule: Q01DX009 (ip), vehicle: saline
[2] = dose: 100.0 mg/kg/injection, schedule: Q04DX003 (ip), vehicle: saline with Tween-80
[3] = dose: 200.0 mg/kg/injection, schedule: Q04DX003 (ip), vehicle: saline with Tween-80
[4] = dose: 400.0 mg/kg/injection, schedule: Q04DX003 (ip), vehicle: saline with Tween-80
[5] = dose: 50.0 mg/kg/injection, schedule: Q01DX009 (ip), vehicle: saline with Tween-80
[6] = dose: 100.0 mg/kg/injection, schedule: Q01DX009 (ip), vehicle: saline with Tween-80
[7] = dose: 200.0 mg/kg/injection, schedule: Q01DX009 (ip), vehicle: saline with Tween-80
[8] = dose: 50.0 mg/kg/injection, schedule: Q04DX003 (ip), vehicle: saline with Tween-80
[9] = dose: 25.0 mg/kg/injection, schedule: Q01DX009 (ip), vehicle: saline with Tween-80
[10] = dose: 100.0 mg/kg/injection, schedule: Q04DX003 (ip), vehicle: saline
[11] = dose: 200.0 mg/kg/injection, schedule: Q04DX003 (ip), vehicle: saline
[12] = dose: 400.0 mg/kg/injection, schedule: Q04DX003 (ip), vehicle: saline
[13] = dose: 50.0 mg/kg/injection, schedule: Q01DX009 (ip), vehicle: saline

Measured: T/C

CCCCCCCCCC(=O)CCCCC
inactive: dose: 100.0 mg/kg/injection, schedule: Q04DX003 (ip), vehicle: other 109 % of control | dose: 200.0 mg/kg/injection, schedule: Q04DX003 (ip), vehicle: other 109 % of control | dose: 400.0 mg/kg/injection, schedule: Q04DX003 (ip), vehicle: other 113 % of control

CC(C)C1=C(O)C2=C(C(=O)C1=O)C1(C)CCCC(C)(C)C1CC2O (configuration not stated)
inactive: dose: 2.0 mg/kg/injection, schedule: Q01DX010 (ip), vehicle: carboxymethylcellulose (CMC) 100 % of control | dose: 5.0 mg/kg/injection, schedule: Q01DX010 (ip), vehicle: carboxymethylcellulose (CMC) 95 % of control | dose: 10.0 mg/kg/injection, schedule: Q01DX010 (ip), vehicle: carboxymethylcellulose (CMC) 90 % of control | dose: 20.0 mg/kg/injection, schedule: Q01DX010 (ip), vehicle: carboxymethylcellulose (CMC) 105 % of control

CN(C)c1ccc(/C=C/c2ccc3ccccc3[n+]2C)cc1
inactive: [1] 88 % of control

Cc1ccc2nc3c(nc2c1)-c1cccc2cccc-3c12
inactive: [2] 87 % of control | [3] 91 % of control | [4] 91 % of control

N#C/C(=C\c1ccncc1)c1csc2ccccc12
inactive: dose: 50.0 mg/kg/injection, schedule: Q01DX011 (ip), vehicle: Klucel (hydroxypropylcellulose) (HPC) 111 % of control | dose: 100.0 mg/kg/injection, schedule: Q01DX011 (ip), vehicle: Klucel (hydroxypropylcellulose) (HPC) 107 % of control | dose: 200.0 mg/kg/injection, schedule: Q01DX011 (ip), vehicle: Klucel (hydroxypropylcellulose) (HPC) 107 % of control | dose: 400.0 mg/kg/injection, schedule: Q01DX011 (ip), vehicle: Klucel (hydroxypropylcellulose) (HPC) 89 % of control

CNC1=C2NC(=O)/C(C)=C\C=C\C(C)C(O)C(C)C(O)C(C)C(OC(C)=O)C(C)C(OC)/C=C/OC3(C)Oc4c(C)c(O)c(c(c4C3=O)C1=O)C2=O (configuration not stated)
inactive: [5] 95 % of control | [6] 90 % of control | [7] 100 % of control

O=C(O)CNC(=O)CCl
inactive: dose: 25.0 mg/kg/injection, schedule: Q01DX009 (ip), vehicle: Klucel (hydroxypropylcellulose) (HPC) 110 % of control | dose: 50.0 mg/kg/injection, schedule: Q01DX009 (ip), vehicle: Klucel (hydroxypropylcellulose) (HPC) 120 % of control | dose: 100.0 mg/kg/injection, schedule: Q01DX009 (ip), vehicle: Klucel (hydroxypropylcellulose) (HPC) 120 % of control | dose: 225.0 mg/kg/injection, schedule: Q01DX009 (ip), vehicle: Klucel (hydroxypropylcellulose) (HPC) 86 % of control

CCCCNc1c(OC)ccc2c(C)c3[n+](cc12)CCc1cc(OC)c(OC)cc1-3
inactive: dose: 1.56 mg/kg/injection, schedule: Q04DX003 (ip), vehicle: water 103 % of control | dose: 3.13 mg/kg/injection, schedule: Q04DX003 (ip), vehicle: water 103 % of control

CC(=O)CC(=O)Nc1ccc([N+](=O)[O-])cc1
inactive: [8] 109 % of control | [2] 109 % of control | [3] 95 % of control | [4] 100 % of control

Cc1nc(N)c(N)nc1C
inactive: dose: 12.5 mg/kg/injection, schedule: Q01DX009 (ip), vehicle: saline with Tween-80 95 % of control | [9] 88 % of control | dose: 25.0 mg/kg/injection, schedule: Q04DX003 (ip), vehicle: saline with Tween-80 102 % of control | [5] 107 % of control | [8] 101 % of control

C1=CCONC1
inactive: [8] 99 % of control | [2] 104 % of control | [10] 103 % of control | [3] 100 % of control | [11] 120 % of control | [12] 93 % of control

c1cc2cccc3c2c(c1)c1sc2c4cccc5cccc(c54)c2c31
inactive: [2] 91 % of control | [3] 100 % of control

CCB1OCC2OB(CC)OC2C2OB(CC)OC2CO1 (configuration not stated)
inactive: [13] 100 % of control | dose: 100.0 mg/kg/injection, schedule: Q01DX009 (ip), vehicle: saline 97 % of control | dose: 200.0 mg/kg/injection, schedule: Q01DX009 (ip), vehicle: saline 93 % of control

CCOCCO
inactive: dose: 5.0 mg/kg/injection, schedule: Q01DX009 (ip), vehicle: saline 103 % of control | dose: 5.0 mg/kg/injection, schedule: Q04DX003 (ip), vehicle: saline 92 % of control | dose: 10.0 mg/kg/injection, schedule: Q01DX009 (ip), vehicle: saline 88 % of control | dose: 10.0 mg/kg/injection, schedule: Q04DX003 (ip), vehicle: saline 92 % of control | dose: 20.0 mg/kg/injection, schedule: Q04DX003 (ip), vehicle: saline 88 % of control

CC(C)NCC(O)COc1ccc(OCc2ccccc2)c(OCc2ccccc2)c1 (configuration not stated)
inactive: [9] 106 % of control | [5] 94 % of control

CN1c2ccccc2C(=O)N2CCc3c([nH]c4ccccc34)C21 (configuration not stated)
inactive: dose: 10.0 mg/kg/injection, schedule: Q01DX009 (ip), vehicle: saline with Tween-80 98 % of control | dose: 20.0 mg/kg/injection, schedule: Q01DX009 (ip), vehicle: saline with Tween-80 118 % of control

CCC(C)(O)C#CC(C)(O)CC (configuration not stated)
inactive: [10] 91 % of control | [11] 91 % of control | [12] 87 % of control

c1ccc(-c2nc3ccccc3nc2-c2ccc(Sc3ccc(-c4nc5ccccc5nc4-c4ccccc4)cc3)cc2)cc1
inactive: [6] 101 % of control | [7] 93 % of control

COc1ccc2c(c1OC)C1C3CC=CC3C2C2=[N+]1CCc1cc3c(cc12)OCO3 (configuration not stated)
inactive: dose: 3.12 mg/kg/injection, schedule: Q01DX009 (ip), vehicle: saline 95 % of control | dose: 6.25 mg/kg/injection, schedule: Q01DX009 (ip), vehicle: Klucel (hydroxypropylcellulose) (HPC) 114 % of control | dose: 6.25 mg/kg/injection, schedule: Q01DX009 (ip), vehicle: saline 100 % of control | dose: 12.5 mg/kg/injection, schedule: Q01DX009 (ip), vehicle: Klucel (hydroxypropylcellulose) (HPC) 90 % of control | [1] 108 % of control | dose: 18.0 mg/kg/injection, schedule: Q01DX009 (ip), vehicle: Klucel (hydroxypropylcellulose) (HPC) 86 % of control

CSc1ccc(OC(=O)Nc2ccccc2F)cc1
inactive: [8] 90 % of control | [2] 100 % of control | [3] 109 % of control

CN1CSC(=S)N(Cc2ccccc2)C1
inactive: [5] 90 % of control | [6] 90 % of control

C=CC1CCCCC1C=C (configuration not stated)
inactive: dose: 25.0 mg/kg/injection, schedule: Q01DX009 (ip), vehicle: saline 107 % of control | [13] 88 % of control

CCn1cnc2c(SC)ncnc21
inactive: dose: 18.75 mg/kg/injection, schedule: Q01DX009 (ip), vehicle: saline 109 % of control | dose: 25.0 mg/kg/injection, schedule: Q04DX003 (ip), vehicle: saline 86 % of control | dose: 37.5 mg/kg/injection, schedule: Q01DX009 (ip), vehicle: saline 100 % of control | dose: 50.0 mg/kg/injection, schedule: Q04DX003 (ip), vehicle: saline 104 % of control | dose: 75.0 mg/kg/injection, schedule: Q01DX009 (ip), vehicle: saline 104 % of control | dose: 75.0 mg/kg/injection, schedule: Q04DX003 (ip), vehicle: Klucel (hydroxypropylcellulose) (HPC) 95 % of control
